Reference: PMC4678575 (MedChemComm, 2013)

Experiments:
[1] = biological target: first bromodomain of BRD4 (BRD4(1)) (Homo sapiens, UniProt O60885); assay: AlphaScreen peptide displacement assay, BRD4; assay type: binding; conditions: for inhibition of BRD4(1), in words: AlphaScreen using isolated bromodomains
[2] = biological target: CBP (Homo sapiens, UniProt Q92793); assay: DSF thermal shift, CBP; assay type: binding
[3] = biological target: CBP bromodomain (Homo sapiens, UniProt Q92793); assay: AlphaScreen peptide displacement assay, CBP; assay type: binding; conditions: for affinity for the CBP bromodomain, in words: AlphaScreen using isolated bromodomains
[4] = Re-examination of stock solutions by LCMS; assay type: physicochemical; conditions: mass loss of 18 amu, likely dehydration to indene 16

Sequence of CBP bromodomain (Q92793 1085-1192 limits assumed): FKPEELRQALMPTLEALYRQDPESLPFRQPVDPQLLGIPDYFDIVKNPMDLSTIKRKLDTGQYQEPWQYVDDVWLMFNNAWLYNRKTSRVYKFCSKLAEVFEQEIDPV
Sequence of CBP (Q92793 1085-1192 limits assumed): as above

Structure (SMILES): Cc1noc(C)c1-c1ccc2nc[nH]c2c1 [Compound 8]
- affinity/potency for BRD4(1) compared with CBP, in words ([1]; AlphaScreen): comparable affinity for both bromodomains

Structure (SMILES): Cc1noc(C)c1-c1ccc2ncn(Cc3ccc(C#N)cc3)c2c1 [Compound 28a]
- selectivity for BRD4(1) over CBP ([1]; AlphaScreen BRD4(1) vs CBP): at least 100 fold
- stabilization of CBP, in words [2]: only minimal stabilization

Structure (SMILES): Cc1noc(C)c1-c1ccc2c(c1)C(OCc1ccccc1)CC2 (stereo not drawn) [Compound 9]
- IC50 [3]: > 10 µM

Structure (SMILES): Cc1noc(C)c1-c1ccc2c(c1)C(O)(c1ccccc1)CC2 (stereo not drawn) [Compound 15]
- chemical stability of stock solutions, in words [4]: decomposition of the parent compound

Structure (SMILES): Cc1noc(C)c1-c1ccc2c(c1)C(=O)CC2 [Compound 6]
- inhibition of BRD4(1), in words [1]: modest inhibitors
- affinity for the CBP bromodomain, in words [3]: no affinity

Structure (SMILES): Cc1noc(C)c1-c1ccc2cc[nH]c2c1 [Compound 7]
- inhibition of BRD4(1), in words [1]: modest inhibitors
- affinity for the CBP bromodomain, in words [3]: no affinity
